From patent publication US7951804B2, “Piperidinyl compounds” (Merck Patent GmbH, priority 2003, dated 2011)
Structures can show the parent of a compound that is named as a salt.

Legend:
FXa = FXa (Homo sapiens, UniProt P00742); test: Factor Xa inhibition (FXa-IC50); type: biochemical
Source text: The inhibition of factor Xa by the compounds according to the invention and the measurement of the anticoagulant and antithrombotic activity can be determined by conventional in-vitro or in-vivo methods. A suitable method is described, for example, by J. Hauptmann et al. in Thrombosis and Haemostasis 1990, 63, 220-223.
The inhibition of factor Xa can be measured, for example, by the method of T. Hara et al. in Thromb. Haemostas. 1994, 71, 314-319.

TF/FVIIa = TF/FVIIa (Homo sapiens, UniProt P08709); test: TF/factor VIIa inhibition (TF/FVIIa-IC50); type: biochemical
Sequence of TF/FVIIa (P08709 213-466 limits assumed): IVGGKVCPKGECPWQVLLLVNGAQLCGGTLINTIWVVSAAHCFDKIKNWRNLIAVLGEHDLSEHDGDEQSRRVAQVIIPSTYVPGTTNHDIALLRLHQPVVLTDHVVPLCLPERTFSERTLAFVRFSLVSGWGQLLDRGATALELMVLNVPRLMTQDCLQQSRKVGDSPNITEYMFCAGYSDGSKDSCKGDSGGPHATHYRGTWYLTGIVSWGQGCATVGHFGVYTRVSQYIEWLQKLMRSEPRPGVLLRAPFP
Sequence of TF/FVIIa (P08709 61-212 partner limits assumed): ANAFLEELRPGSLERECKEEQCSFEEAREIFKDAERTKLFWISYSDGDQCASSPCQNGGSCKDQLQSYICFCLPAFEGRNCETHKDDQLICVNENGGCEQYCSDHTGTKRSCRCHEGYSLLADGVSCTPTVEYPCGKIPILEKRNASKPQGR
Sequence of TF/FVIIa (P13726 33-295 partner): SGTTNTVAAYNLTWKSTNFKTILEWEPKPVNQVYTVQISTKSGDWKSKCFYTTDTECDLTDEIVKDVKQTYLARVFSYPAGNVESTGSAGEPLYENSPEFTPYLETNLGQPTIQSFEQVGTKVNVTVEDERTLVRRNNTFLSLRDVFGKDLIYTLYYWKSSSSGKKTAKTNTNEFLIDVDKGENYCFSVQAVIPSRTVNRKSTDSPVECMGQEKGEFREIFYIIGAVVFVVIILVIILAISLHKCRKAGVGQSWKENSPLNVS
Source text: The inhibition of factor VIIa by the compounds according to the invention and the measurement of the anticoagulant and antithrombotic activity can be determined by conventional in-vitro or in-vivo methods. A conventional method for the measurement of the inhibition of factor Vila is described, for example, by H. F. Ronning et al. in Thrombosis Research 1996, 84, 73-81.

Sequence of FXa (P00742 235-488 limits assumed): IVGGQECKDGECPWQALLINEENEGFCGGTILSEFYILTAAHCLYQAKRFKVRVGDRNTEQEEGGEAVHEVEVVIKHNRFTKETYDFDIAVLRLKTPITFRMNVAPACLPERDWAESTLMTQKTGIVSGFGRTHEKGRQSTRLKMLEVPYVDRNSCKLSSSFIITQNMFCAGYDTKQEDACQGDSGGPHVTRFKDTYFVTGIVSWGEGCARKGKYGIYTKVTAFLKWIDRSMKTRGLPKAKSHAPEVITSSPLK
Sequence of FXa (P00742 41-179 partner limits assumed): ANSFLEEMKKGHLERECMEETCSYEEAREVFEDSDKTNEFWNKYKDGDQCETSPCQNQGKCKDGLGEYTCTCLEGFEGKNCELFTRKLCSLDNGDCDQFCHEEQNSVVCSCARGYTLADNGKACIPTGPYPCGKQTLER

IC50 (FXa) [nM] | IC50 (TF/FVIIa) [nM] | Compound
6 | 6.9 | CN1CCC(C2CCN(C(=O)[C@H](NC(=O)Nc3ccc(Cl)cc3)c3ccccc3)CC2)CC1 [Compound 1, (R)-1-(4-chlorophenyl)-3-[2-(1′-methyl-4,4′-bipiperidinyl-1-yl)-2-oxo-1-phenylethyl]urea]
670 | 1700 | O=C(Nc1ccc(Cl)cc1)N[C@@H](C(=O)N1CCN(c2ccc(F)cc2)CC1)c1ccccc1 [Compound 2, (R)-1-(4-chlorophenyl)-3-{2-[4-(4-fluorophenyl)piperazin-1-yl]-2-oxo-1-phenylethyl}urea]
17 | 6.3 | CN1CCC(N2CCN(C(=O)[C@H](NC(=O)Nc3ccc(Cl)cc3)c3ccccc3)CC2)CC1 [Compound 5, (R)-1-(4-chlorophenyl)-3-{2-[4-(1-methylpiperidin-4-yl)piperazin-1-yl]-2-oxo-1-phenylethyl}urea bistrifluoroacetate]
11 | 15 | CN1CCC(C2CCN(C(=O)[C@H](OC(=O)Nc3ccc(Cl)cc3)c3ccccc3)CC2)CC1 [Compound 49, 2-(1′-methyl-4,4′-bipiperidinyl-1-yl)-2-oxo-1-phenylethyl (R)-4-chlorophenyl)carbamate trifluoroacetate]
